Experimental data from patent US20070066580A1, “Novel aldosterone antagonists and uses thereof” (Recordati Ireland Limited, priority 2005, published 2007).

These compounds were tested against T1, ligand binding domain of the human mineralocorticoid receptor (hMR LBD) (Homo sapiens, UniProt P08235) (assay: Mineralocorticoid receptor (MR) in vitro competitive binding assay, [3H]aldosterone displacement). Settings: IR^TOTAL = sum of IR^AR/MR, IR^ER/MR, IR^GR/MR, IR^PR/MR.
T1 construct: made in house; host or cells: Sf9 insect cells (baculovirus, pFastBac)
T1 sequence (P08235 729-984): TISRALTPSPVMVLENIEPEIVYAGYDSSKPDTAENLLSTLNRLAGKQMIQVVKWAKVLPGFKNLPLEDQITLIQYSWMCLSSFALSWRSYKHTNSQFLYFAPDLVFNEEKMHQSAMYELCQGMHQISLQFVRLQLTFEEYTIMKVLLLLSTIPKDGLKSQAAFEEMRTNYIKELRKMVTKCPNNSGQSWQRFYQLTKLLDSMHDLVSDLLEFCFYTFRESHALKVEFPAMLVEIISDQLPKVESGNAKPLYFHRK
Description: Mineralocorticoid receptor (MR) binding assay: Spodoptera furgiperda (Sf9) insect cells (ATCC accession number CRL-1711) were maintained in culture in EX-CELL™ 420 serum free medium (JRH Biosciences, Inc.) at 27° C.
A recombinant baculovirus containing nucleotide sequences encoding the ligand binding domain of the human mineralocorticoid receptor (hMR) cloned into the pFastBac™ vector was generated using the Bac-to-Bac® Baculovirus Expression System Kit (Invitrogen) following the manufacturer's instructions. This recombinant baculovirus contains nucleotides 2401 through 3168 (SEQ ID NO: 13) of hMR, providing for expression of the ligand binding domain (LBD), amino acid residues 729-984 (SEQ ID NO: 14), of hMR (hMR LBD). Cultured Sf9 insect cells were transfected with this recombinant baculovirus following the manufacturer's instructions.
For the binding assay, a crude lysate of the hMR LBD-expressing insect cells was prepared. The crude lysate was diluted 12.5-fold with binding buffer (20 mM Tris-HCl pH 7.4, 1 mM EDTA, 1 mM dithiothreitol, 20 mM sodium tungstate, 50 mM KCl and 10% glycerol).
For the negative control sample, the diluted lysate was incubated with a 10 nM final concentration of the radioligand [1,2,6,7-^3H] aldosterone (Amersham Biosciences, catalogue # 434) for 3.5 h at 4° C. For test compounds and the positive control sample, the diluted lysate was incubated with various concentrations of test compound or with a 20 μM final concentration of spironolactone (Sigma, S-3378) as a reference compound for 45 min on ice, and was then incubated with a 10 nM final concentration of [1,2,6,7-^3H] aldosterone for 3.5 h at 4° C.
Using a CellHarvester (PerkinElmer, formerly Packard Biosciences), receptor/ligand complexes were retained on 96-well GF/B filters (PerkinElmer, formerly Packard Biosciences) while free radioligand passed through the filters. Scintillation counting of GF/B filter plates was performed using a TopCount NXT (PerkinElmer, formerly Packard Biosciences) to quantitate the amount of [1,2,6,7-^3H] aldosterone bound to the hMR LBD.
The IC50 of a test compound was determined from the concentration of test compound giving half-maximal displacement as obtained by nonlinear least-squares curve fitting to a one-site binding sigmoidal model using Prism 3.0 (Graph Pad Software, Inc., San Diego, US). The calculated IC50 values represent the average values calculated from the results of 1-3 experiments carried out in duplicate.
IC50 and inhibitory ratio calculations: To provide a measure of the potency of each test compound as an antagonist of MR, the IC50 of each test compound (IC50^Test) for ligand binding to MR and the IC50 of the known MR antagonists eplerenone (IC50^Ep) and spironolactone (IC50^Sp) for ligand binding to MR were used to calculate an IC50 ratio (RIC50) according to the following equations: RIC50^Ep/Test=IC50^Ep/IC50^Test and RIC50^Sp/Test=IC50^Sp/IC50^Test.
These individual inhibitory ratios were used to calculate a total inhibitory ratio (IR^TOTAL) according to the following equation: IR^TOTAL=IR^AR/MR+IR^ER/MR+IR^GR/MR+IR^PR/MR. B. Results and Discussion

Row | Compound | IR^TOTAL compared with the IR^TOTAL for eplerenone | IR^TOTAL compared with the IR^TOTAL for spironolactone
1 | CC(=O)S[C@@H]1CC2=CC(=O)CC[C@]2(C)C2=CC[C@@]3(C)C(CC[C@@]34CCC(=O)O4)C21 (stereo partly shown) [Example 11] | at least an order of magnitude greater than the IR^TOTAL for eplerenone | greater than the IR^TOTAL for spironolactone
2 | CC(=O)S[C@@H]1CC2=CC(=O)CC[C@]2(C)[C@@]23O[C@@H]2C[C@@]2(C)C(CC[C@@]24COC(=O)O4)C13 (stereo partly shown) [Example 46] | at least an order of magnitude greater than the IR^TOTAL for eplerenone | greater than the IR^TOTAL for spironolactone
3 | CO/N=C/[C@@H]1CC2=CC(=O)CC[C@]2(C)[C@@]23O[C@@H]2C[C@@]2(C)C(CC[C@@]24CCC(=O)O4)C13 (stereo partly shown) [Example 52] | – | greater than the IR^TOTAL for spironolactone
4 | C[C@]12CCC(=O)C=C1CCC1C2=CC[C@@]2(C)C1[C@@H]1C[C@@H]1[C@@]21COC(=O)O1 (stereo partly shown) [Example 75] | at least an order of magnitude greater than the IR^TOTAL for eplerenone | at least an order of magnitude greater than the IR^TOTAL for spironolactone
5 | C[C@]12CCC(=O)C=C1C[C@@H](C#N)C1C2=CC[C@@]2(C)C1[C@@H]1C[C@@H]1[C@@]21COC(=O)O1 (stereo partly shown) [Example 76] | at least an order of magnitude greater than the IR^TOTAL for eplerenone | at least an order of magnitude greater than the IR^TOTAL for spironolactone

The compounds below were run against T2, GAL4 DBD-hMR LBD fusion protein (Homo sapiens, UniProt P08235) (assay: Cell-based luciferase assay, agonist mode (CV-1 cells)). Settings: 10 μM of compound.
T2 construct: expressed in transfected cells; host or cells: CV-1 cells (African green monkey kidney), transient co-transfection with pCMX-GAL4-based vector and Galp3TKLuc reporter
T2 sequence (P08235 with tags, fused parts or gaps limits assumed): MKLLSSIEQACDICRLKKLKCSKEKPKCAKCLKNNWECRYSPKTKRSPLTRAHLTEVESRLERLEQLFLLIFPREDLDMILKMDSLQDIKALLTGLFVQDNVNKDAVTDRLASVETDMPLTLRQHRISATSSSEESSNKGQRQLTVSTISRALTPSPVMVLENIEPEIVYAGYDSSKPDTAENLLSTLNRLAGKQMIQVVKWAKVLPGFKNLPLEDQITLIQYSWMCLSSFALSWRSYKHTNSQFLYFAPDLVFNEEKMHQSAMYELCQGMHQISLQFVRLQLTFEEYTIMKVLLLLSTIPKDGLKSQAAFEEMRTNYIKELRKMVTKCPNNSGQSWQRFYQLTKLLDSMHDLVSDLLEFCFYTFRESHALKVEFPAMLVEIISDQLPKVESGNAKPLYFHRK
Source text: GAL4 DBD-hMR LBD fusion protein expression vector: A pCMX-GAL4-based vector was used for the expression of a fusion protein composed of the amino acids 1-147 of the DNA binding domain of Saccharomyces cerevisiae GAL4 (GAL4 DBD) (SEQ ID NO: 16) and amino acid residues 729-984 of the ligand binding domain of human mineralocorticoid receptor (hMR LBD) (SEQ ID NO: 14). The expression vector contained an expression cassette of the nucleotide sequence for the GAL4 DBD (See SEQ ID NO: 19) ligated to nucleotides 2401 through 3168 of the human mineralocorticoid (hMR) receptor (SEQ ID NO: 13).
In vitro cell culture: CV-1 cells (African green monkey kidney cell line, ATCC accession number CCL-70) were maintained in culture in 90% DMEM medium supplemented by 9% FCS and 1% Penicillin-Streptomycin-L-Glutamine at 37° C. under 8.5% CO2.
These cells were transiently co-transfected with the GAL4 DBD-hMR LBD fusion protein expression vector and the Galp3TKLuc reporter gene vector using the FuGENE 6 Transfection Reagent (Roche) according to the manufacturer's instructions.
Agonist assay: As a positive control, aldosterone (Acros Organics, catalogue # 215360050) was used at a concentration of 100 nM. The negative control sample was 90% DMEM medium supplemented by 9% charcoal-treated FCS and 1% Penicillin-Streptomycin-L-Glutamine containing 0.2% DMSO plus 0.02% ethanol. Positive control, negative control, or 10 μM final concentration of test compound was added to the cells and incubated for 24 hours at 37° C. under 8.5% CO2 before the Luciferase substrate (Promega, catalogue number #E2620) was added. After an incubation period of 5 min at RT, luminescence signals were read on a microplate reader (Molecular Devices/LJL Biosystems). Negative and positive controls were defined as 0% and 100% agonism, respectively. The agonistic potency of test compounds is given in % and was normalized to the positive and negative controls.

Row | Compound | potency for activation of MR relative to aldosterone
6 | C=CCC[C@@H]1CC2=CC(=O)CC[C@]2(C)C2=CC[C@@]3(C)C(CC[C@@]34CCC(=O)O4)C21 (stereo partly shown) [Example 8] | at least three orders of magnitude less potent than aldosterone
7 | CCC[C@@H]1CC2=CC(=O)CC[C@]2(C)C2=CC[C@@]3(C)C(CC[C@@]34CCC(=O)O4)C21 (stereo partly shown) [Example 9] | at least three orders of magnitude less potent than aldosterone
8 | CCC[C@@H]1CC2=CC(=O)CC[C@]2(C)[C@@]23O[C@@H]2C[C@@]2(C)C(CC[C@@]24CCC(=O)O4)C13 (stereo partly shown) [Example 10] | at least three orders of magnitude less potent than aldosterone
9 | CCCS[C@@H]1CC2=CC(=O)CC[C@]2(C)[C@@]23O[C@@H]2C[C@@]2(C)C(CC[C@@]24CCC(=O)O4)C13 (stereo partly shown) [Example 12] | at least three orders of magnitude less potent than aldosterone
10 | C[C@]12CCC(=O)C=C1C[C@@H](SCC(F)(F)F)C1C2=CC[C@@]2(C)C1CC[C@@]21CCC(=O)O1 (stereo partly shown) [Example 18] | at least three orders of magnitude less potent than aldosterone
11 | C[C@@H]1CC2=CC(=O)CC[C@]2(C)C2=CC[C@@]3(C)C(CC[C@@]34CCC(=O)O4)C21 (stereo partly shown) [Example 26] | at least three orders of magnitude less potent than aldosterone
12 | CO/N=C/[C@@H]1CC2=CC(=O)CC[C@]2(C)C2=CC[C@@]3(C)C(CC[C@@]34CCC(=O)O4)C21 (stereo partly shown) [Example 34] | at least three orders of magnitude less potent than aldosterone
13 | C[C@]12CCC(=O)C=C1CCC1C3CC[C@@]4(COC(=O)O4)[C@@]3(C)C[C@H]3O[C@@]132 (stereo partly shown) [Example 41] | at least three orders of magnitude less potent than aldosterone
14 | CO/N=C/[C@@H]1CC2=CC(=O)CC[C@]2(C)[C@@]23O[C@@H]2C[C@@]2(C)C(CC[C@@]24CCC(=O)O4)C13 (stereo partly shown) [Example 52] | at least three orders of magnitude less potent than aldosterone
15 | CCC[C@@H]1CC2=CC(=O)CC[C@]2(C)[C@@]23O[C@@H]2C[C@@]2(C)C(C13)[C@@H]1C[C@@H]1[C@@]21CCC(=O)O1 (stereo partly shown) [Example 71] | at least three orders of magnitude less potent than aldosterone
